Measurements from EP1398031A1, “Use of 6-amino-quinoline-5,8-quinones and nucleic acids associated with senescence for the treatment of tumors” (Max-Planck-Gesellschaft zur Förderung der Wissenschaften …, priority 2002, dated 2004).

Tests used:
HDF [1] = assay: cGMP assay (competitive immunoassay on cell lysates); assay type: cell-based; settings: Homo sapiens, 1 µM LY, 100 µM SNP for 2 hours, read-out: inhibition of the SNP-induced synthesis of cGMP
Method: Cells of early and late passages were seeded in equal numbers in 6-well plates. 24 hours later SNP (Sigma) was dissolved in complete medium and added to cells to a final concentration of 100 µM. Control cells received the same volume of drug-free medium. After 2 hours of incubation, medium was removed and cells were lysed by addition of 400 µl 0.1 M HCl per well for 10 minutes. cGMP concentration in lysates was determined using a specific competitive immunoassay according to the manufacturer's instructions (Sigma). A plate reader (LAMBDA E, MWG-Biotech) was used to detect the signal at 405 nm. Experiments were performed in triplicates with all samples measured twice.

HDF [2] = assay: proliferation assay (cell counting); assay type: cell-based
Method: (§1) Cells were seeded in equal numbers in 6-well plates the day before addition of LY in order to ensure uniform cell layers at the start of the experiments. Cells were treated in triplicates with daily exchange of medium containing drug or drug-free vehicle. For each time point cells were trypsinized and cell proliferation was assessed using a Z1 Counter (Coulter).

HDF [3] = assay: SA-β-gal staining and morphology; assay type: cell-based, human; settings: early passage HDF treated with LY
Method: Cells were fixed by incubation in 0.5 % glutaraldehyde in PBS for 5 minutes at room temperature and stained for SA-ß-galactosidase at pH 6.0 as described by Dimri et al., 1995.
(§2) For phase contrast and β-gal staining an Axiovert 25 microscope (Zeiss) equipped with a HyperHAD CCD camera (Sony) and ImageBase software (Kappa) was used. In vivo expression of histone-H2B-eGFP was documented with a Photometrics CooISNAP-HQ CCD camera (Roper Scientific) on an inverted Axiovert 200M microscope (Zeiss) using the Metamorph software (Universal Imaging).

HDF [4] = assay: FACS analysis of cell cycle after release from confluence; assay type: cell-based, human; settings: HDF synchronized by confluence, released by trypsinization; 1 µM LY, 24 and 36 hours
Method: (§3) Cell samples (both adherent and floating cells) were harvested by trypsinization, washed once with PBS and fixed in 70 % ethanol for > 2 hours on ice, washed once with PBS and incubated for 30 minutes at room temperature in staining solution containing 50 µg/ml of propidium iodide, 0.2 mg/ml of RNase A and 0.1 % (v/v) Triton X-100 in PBS. Quantification of apoptotic cells was performed using the Annexin V-FITC apoptosis detection kit (Becton Dickinson). Samples were analyzed with a FACScan unit (Becton Dickinson). 1×10^4 cells were analyzed for each assay. Quantitation was performed using single histogram statistics.

HDF [5] = assay: detection of DNA-synthesis (BrdU incorporation); assay type: cell-based, human; settings: 1 µM LY; synchronized HDF; 10 µM BrdU for 6 hours
Method: Cells were plated on cell locate glass grids (Eppendorf) and labeled for 6 hours using the 5'-bromo-2'-deoxy-uridine labelling and detection kit I (Roche Applied Sciences). After staining with a FITC-labeled anti-BrdU-antibody, positive cells were detected by fluorescence microscopy.

p53 protein in HDF = assay: Western blot analysis, p53; assay type: cell-based, human; settings: after treatment with LY
Method: (§4) Cells were lysed in a lysis buffer composed of 50 mM HEPES pH 7.5, 150 mM NaCl, 1 mM EGTA, 10 % glycerol, 1 % Triton X-100, 100 mM NaF, 10 mM Na4P2O7, 1 µM PMSF, and 1 µM Na3VO4. Protein concentration in whole lysates was determined using a Bradford assay (BioRad). 20 µg of lysates diluted with Laemmli-buffer were separated on 12 % SDS-polyacrylamide gels and transferred to Immobilon-P membranes (Millipore). For detection of pRb, separation was performed on a 7-12 % gradient gel. Antibodies against p53 (Pab 1801), p21 (c-19), p16 (c-20) and α-Tubulin (TU-02) were purchased from Santa Cruz Biotechnology. Anti-pRB antibodies (G3-245) were from BD PharMingen. Enhanced chemiluminescence generated by horse radish peroxidase-coupled secondary antibodies was detected with a CF440 imager (Kodak/Perkin Elmer).

p16INK4A in HDF = assay: Western blot analysis, p16; assay type: cell-based, human; settings: 48 hours of treatment with LY
Method: as §4

pRb in HDF = assay: Western blot analysis, pRb phosphorylation status; assay type: cell-based, human
Method: as §4

DLD1 = assay: proliferation assay (cell counting); assay type: cell-based, human; settings: after addition of LY
Method: as §1

HCT116 = assay: proliferation assay (cell counting); assay type: cell-based, human
Method: as §1

MCF7 = assay: proliferation assay (cell counting); assay type: cell-based, human; settings: after addition of LY
Method: as §1

[6] = system: p21-deficient HCT116 colorectal cancer cells; assay: proliferation assay (cell counting); assay type: cell-based, human
Method: as §1

[7] = system: p53-deficient HCT116 cells; assay: proliferation assay (cell counting); assay type: cell-based, human; settings: after LY addition
Method: as §1

[8] = system: p21 protein in HCT116 cells; assay: Western blot analysis, p21; assay type: cell-based, human
Method: as §4

[9] = system: p21 mRNA and protein of p53-/- HCT116; assay: Northern and Western blot analysis of p21; assay type: cell-based, human; settings: 1.5 µM LY
Method: (§5) RNA was isolated using the RNAgents kit (Promega). A Northern probe directed against the 3'-untranslated region of ELF1 α mRNA was generated by PCR using an EST as template and subsequent gel purification. The p21 probe corresponds to the open reading frame of p21. A probe corresponding to the 5'-region of sGC-β3 was amplified from HDF-cDNA and subcloned. Hybridizations were performed in QuickHyb, following the manufacturer's instructions (Stratagene).
as §4

[10] = system: p16INK4A-deficient mouse embryo fibroblasts (MEF); assay: proliferation (data not shown); assay type: cell-based; settings: LY
Method: as §1

[11] = system: NIH3T3-L1 cells expressing the K1-mutant; assay: proliferation assay (cell counting); assay type: cell-based, mouse; settings: 1.5 µM LY; most cells
Method: as §1

[12] = system: NIH3T3-L1 cells expressing wildtype SV40 large T antigen; assay: proliferation assay, morphology and annexin V staining; assay type: cell-based, mouse; settings: 1.5 µM LY
Method: as §3, §1

HeLa = assay: cell death / apoptosis (histone H2B-eGFP chromatin morphology, sub-G1 flow cytometry); assay type: cell-based, human
Method: as §3, §2

HEK293 = assay: cell death (data not shown); assay type: cell-based, human; settings: treatment with LY, no arrest
[13] = system: cdk-inhibitors p27 and p15; assay: induction of cdk-inhibitors (data not shown); assay type: cell-based; settings: LY-treatment
[14] = biological target: soluble guanylate cyclase; settings: competitive inhibitor of soluble guanylate cyclase; Fleisch et al., 1984; cited from earlier work
p21 mRNA in HDF = assay: Northern blot analysis of p21 mRNA; assay type: cell-based, human; settings: 0.2 µg/ml adriamycin
Method: as §5

What does the source list for `O=C1C(Nc2ccccc2)=CC(=O)c2ncccc21` [LY, 6-Anilino-quinoline-5,8-quinone]?
inhibition at 1 µM (HDF [1]): 60%; inhibition at 0.25 µM (HDF [2]; Homo sapiens, HDF, 72 h, read-out: reduction in proliferation): 50%; inhibition of proliferation (HDF [2]; early passage fibroblasts, 1 µM LY): completely inhibit proliferation; proliferation after extended treatment (HDF [2]; treatment for 8 days): stable inhibition of proliferation; toxicity after extended treatment (HDF [2]; treatment for 8 days): did not cause any obvious toxicity; reversibility of inhibition of proliferation (HDF [2]; treatment period of more than 2 days, 1 µM LY): irreversible; signs of senescence (morphology, SA-β-galactosidase) (HDF [3]): morphological changes characteristic of senescence and by SA-β-galactosidase staining at pH 6; entry into S-phase (HDF [4]): almost completely blocked the entry into S-phase; DNA synthesis as determined by BrdU incorporation (HDF [5]): complete inhibition of DNA synthesis; level of p53 protein (p53 protein in HDF): did not increase; induction of p16INK4A (p16INK4A in HDF): not induced; ratio of phosphorylated to hypo-phosphorylated pRb (pRb in HDF; 6 hours after addition of LY): clearly shifted towards the hypo-phosphorylated form; pRb phosphorylation status (pRb in HDF; 19 hours after addition of LY): almost completely hypo-phosphorylated; cell proliferation (DLD1): complete cessation of cell proliferation; cell proliferation (HCT116; after addition of LY): complete cessation of cell proliferation; cell proliferation (HCT116; wild-type HCT116, after 5 days of LY treatment): complete cessation of proliferation; cell proliferation (MCF7): complete cessation of cell proliferation; cell-cycle inhibition ([6]; LY vs vehicle (DMSO)): resistant to cell-cycle inhibition; cell proliferation ([6]; after 5 days of LY treatment): regained exponential proliferation; cell proliferation [7]: complete block of proliferation; p21 protein ([8]; 1.5 µM LY): induction of p21; levels of p21 mRNA and protein [9]: induced with kinetics similar to those observed in HDF; cell proliferation [10]: inhibited; cell proliferation [11]: inhibition of proliferation; cell fate [12]: underwent apoptosis; chromatin morphology (HeLa; HeLa expressing histone H2B-eGFP, 2 µM LY for 48 hours): chromatin condensation; cells with a sub-G1 DNA content (HeLa; HeLa treated for 60 hours with LY, flow-cytometry): substantial increase of cells with a sub-G1 DNA content; cell fate (HeLa; treatment with LY, no arrest, data not shown): underwent cell death; cell fate (HEK293): underwent cell death; induction of p27 and p15 [13]: did not lead to induction; IC50 [14]: 2000 nM

Which “p21 mRNA” value (p21 mRNA in HDF) does the source give for `COc1cccc2c1C(=O)c1c(O)c3c(c(O)c1C2=O)C[C@@](O)(C(=O)CO)C[C@@H]3O[C@H]1C[C@H](N)[C@H](O)[C@H](C)O1` [adriamycin] here?
Its value is “induction of p21 mRNA”.

And the p21 protein ([8]; wildtype HCT116 only, adriamycin at 0.2 µg/ml for 8 hours)?
The p21 protein was “induction of p21 protein”.
